Test results reported in patent US20260022142A1, “MACROCYCLIC IMMUNOMODULATORS” (Bristol-Myers Squibb Company, priority 2022, published 2026).
Bridge positions count the residues as written; N and C are the ends. Square brackets hold non-standard residues; d marks the D form. Peptide text beside a SMILES is read from it. * marks the point of attachment. ξ: configuration not given here. Bip = N[C@@H](Cc1ccc(-c2ccccc2)cc1)C(=O)O; Phe(3-Me) = Cc1cccc(C[C@H](N)C(=O)O)c1; Cha = N[C@@H](CC1CCCCC1)C(=O)O; Thr(3ξ) = CC(O)[C@H](N)C(=O)O; Carboxymethyl = O=C(O)C*; Orn = NCCC[C@H](N)C(=O)O; Aun = NCCCCCCCCCCC(=O)O; Dab = NCC[C@H](N)C(=O)O; Dap = NC[C@H](N)C(=O)O; AEEA = NCCOCCOCC(=O)O

Biological target: T1, PD-1/PD-L1 interaction (PE-labeled human PD-L1-Ig binding to Jurkat cell line over-expressing human PD-1) (Homo sapiens, UniProt Q15116)
T1 construct: expressed in transfected cells; host or cells: Jurkat
T1 sequence (Q15116 25-288): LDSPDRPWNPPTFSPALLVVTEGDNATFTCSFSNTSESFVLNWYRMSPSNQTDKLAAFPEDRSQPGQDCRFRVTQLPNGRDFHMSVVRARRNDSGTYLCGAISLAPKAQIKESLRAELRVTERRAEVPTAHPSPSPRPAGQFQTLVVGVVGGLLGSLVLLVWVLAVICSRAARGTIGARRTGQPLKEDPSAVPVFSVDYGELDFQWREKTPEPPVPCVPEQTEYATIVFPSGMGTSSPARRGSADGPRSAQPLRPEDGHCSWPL
Test: Jurkat-PD-1 Cell Binding High-Content Screening Assay (CBA)
Format: cell-based
Settings: Jurkat cell line over-expressing human PD-1; PE-labeled PD-L1-Ig 20 nM final; read-out: Jurkat hPD1-PDL1 IC50
Summary of the method: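 First, compound is added to PD-1-expressing Jurkat cells in serum-containing DMEM and left 2 h at 37° C. Next, PE-conjugated PD-L1-Ig is introduced at 20 nM final concentration for 1 hour. Finally, cells are fixed in 4% paraformaldehyde with Hoechst 33342, washed and imaged.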

Row | IC50 | Compound
1 | 30.2 nM | CC(C)C[C@@H]1NC(=O)[C@H](Cc2c[nH]c3ccccc23)NC(=O)[C@H](CC(=O)O)NC(=O)[C@H](Cc2ccc(OCC(=O)O)cc2)NC(=O)[C@H](CN)NC(=O)CSC[C@@H](C(=O)N[C@@H](CCN)C(=O)NCCCCCCCCCCC(=O)O)NC(=O)[C@H](CO)NC(=O)[C@H](C(C)O)NC(=O)[C@H](CC2CCCCC2)NC(=O)[C@H](CCN)NC(=O)[C@@H](CC(C)C)NC(=O)[C@H](CCCN)NC(=O)[C@H](C(C)C)NC(=O)[C@H](Cc2ccc(-c3ccccc3)cc2)NC1=O (stereo partly drawn) [Compound 3685] ({CH2CO}-[Dap]Y(Carboxymethyl)DWL[Bip]V[Orn][dL][Dab][Cha][Thr(3ξ)]SC[Dab][Aun]-OH; thioether N-14)
2 | 27.6 nM | CC(C)C[C@@H]1NC(=O)[C@H](Cc2c[nH]c3ccccc23)NC(=O)[C@H](CC(=O)O)NC(=O)[C@H](Cc2ccc(OCC(=O)O)cc2)NC(=O)[C@H](C(C)O)NC(=O)CSC[C@@H](C(=O)N[C@@H](CCN)C(=O)NCCCCCCCCCCC(=O)O)NC(=O)[C@H](CCCN)NC(=O)[C@H](C(C)O)NC(=O)[C@H](CC2CCCCC2)NC(=O)[C@H](CCN)NC(=O)[C@@H](CC(C)C)NC(=O)[C@H](CCCN)NC(=O)[C@H](C(C)C)NC(=O)[C@H](Cc2ccc(-c3ccccc3)cc2)NC1=O (stereo partly drawn) [Compound 3686] ({CH2CO}-[Thr(3ξ)]Y(Carboxymethyl)DWL[Bip]V[Orn][dL][Dab][Cha][Thr(3ξ)][Orn]C[Dab][Aun]-OH; thioether N-14)
3 | 19.9 nM | CC(C)C[C@@H]1NC(=O)[C@H](Cc2c[nH]c3ccccc23)NC(=O)[C@H](CC(=O)O)NC(=O)[C@H](Cc2ccc(OCC(=O)O)cc2)NC(=O)[C@H](CN)NC(=O)CSC[C@@H](C(=O)N[C@@H](CCN)C(=O)NCCCCCCCCCCC(=O)O)NC(=O)[C@H](CCCN)NC(=O)[C@H](C(C)O)NC(=O)[C@H](CC2CCCCC2)NC(=O)[C@H](CCN)NC(=O)[C@@H](CC(C)C)NC(=O)[C@H](CCCN)NC(=O)[C@H](C(C)C)NC(=O)[C@H](Cc2ccc(-c3ccccc3)cc2)NC1=O (stereo partly drawn) [Compound 3687] ({CH2CO}-[Dap]Y(Carboxymethyl)DWL[Bip]V[Orn][dL][Dab][Cha][Thr(3ξ)][Orn]C[Dab][Aun]-OH; thioether N-14)
4 | 17.3 nM | CC(C)C[C@@H]1NC(=O)[C@H](Cc2c[nH]c3ccccc23)NC(=O)[C@H](CC(=O)O)NC(=O)[C@H](Cc2ccc(OCC(=O)O)cc2)NC(=O)[C@H](CN)NC(=O)CSC[C@@H](C(=O)N[C@@H](CCN)C(=O)NCCCCCCCCCCC(=O)O)NC(=O)[C@H](Cc2cnc[nH]2)NC(=O)[C@H](C(C)C)NC(=O)[C@H](CC2CCCCC2)NC(=O)[C@H](CCN)NC(=O)[C@@H](CC(C)C)NC(=O)[C@H](CCCN)NC(=O)[C@H](C(C)C)NC(=O)[C@H](Cc2ccc(-c3ccccc3)cc2)NC1=O [Compound 3688] ({CH2CO}-[Dap]Y(Carboxymethyl)DWL[Bip]V[Orn][dL][Dab][Cha]VHC[Dab][Aun]-OH; thioether N-14)
5 | 29.9 nM | CC(C)C[C@@H]1NC(=O)[C@H](Cc2c[nH]c3ccccc23)NC(=O)[C@H](CC(=O)O)NC(=O)[C@H](Cc2ccc(OCC(=O)O)cc2)NC(=O)[C@H](CN)NC(=O)CSC[C@@H](C(=O)N[C@@H](CCN)C(=O)NCCCCCCCCCCC(=O)O)NC(=O)[C@H](Cc2cnc[nH]2)NC(=O)[C@H](C(C)O)NC(=O)[C@H](CC2CCCCC2)NC(=O)[C@H](CCN)NC(=O)[C@@H](CC(C)C)NC(=O)[C@H](CCCN)NC(=O)[C@H](C(C)C)NC(=O)[C@H](Cc2ccc(-c3ccccc3)cc2)NC1=O (stereo partly drawn) [Compound 3689] ({CH2CO}-[Dap]Y(Carboxymethyl)DWL[Bip]V[Orn][dL][Dab][Cha][Thr(3ξ)]HC[Dab][Aun]-OH; thioether N-14)
6 | 38.8 nM | CC(C)C[C@@H]1NC(=O)[C@H](Cc2c[nH]c3ccccc23)NC(=O)[C@H](CC(=O)O)NC(=O)[C@H](Cc2ccc(OCC(=O)O)cc2)NC(=O)[C@H](C(C)O)NC(=O)CSC[C@@H](C(=O)N[C@@H](CCN)C(=O)NCCCCCCCCCCC(=O)O)NC(=O)[C@H](Cc2cnc[nH]2)NC(=O)[C@H](C(C)O)NC(=O)[C@H](CC2CCCCC2)NC(=O)[C@H](CCN)NC(=O)[C@@H](CC(C)C)NC(=O)[C@H](CCCN)NC(=O)[C@H](C(C)C)NC(=O)[C@H](Cc2ccc(-c3ccccc3)cc2)NC1=O (stereo partly drawn) [Compound 3690] ({CH2CO}-[Thr(3ξ)]Y(Carboxymethyl)DWL[Bip]V[Orn][dL][Dab][Cha][Thr(3ξ)]HC[Dab][Aun]-OH; thioether N-14)
7 | 71.3 nM | CC(C)C[C@@H]1NC(=O)[C@H](Cc2c[nH]c3ccccc23)NC(=O)[C@H](CC(=O)O)NC(=O)[C@H](Cc2ccc(OCC(=O)O)cc2)NC(=O)[C@H](C(C)O)NC(=O)CSC[C@@H](C(=O)NCCOCCOCC(=O)NCCCCCCCCCCC(=O)O)NC(=O)[C@H](Cc2cnc[nH]2)NC(=O)[C@H](C(C)O)NC(=O)[C@H](CC2CCCCC2)NC(=O)[C@H](CCN)NC(=O)[C@@H](CC(C)C)NC(=O)[C@H](CCCN)NC(=O)[C@H](C(C)C)NC(=O)[C@H](Cc2ccc(-c3ccccc3)cc2)NC1=O (stereo partly drawn) [Compound 3691] ({CH2CO}-[Thr(3ξ)]Y(Carboxymethyl)DWL[Bip]V[Orn][dL][Dab][Cha][Thr(3ξ)]HC[AEEA][Aun]-OH; thioether N-14)
8 | 58.4 nM | CC(C)C[C@@H]1NC(=O)[C@H](Cc2c[nH]c3ccccc23)NC(=O)[C@H](CC(=O)O)NC(=O)[C@H](Cc2ccc(OCC(=O)O)cc2)NC(=O)[C@H](CN)NC(=O)CSC[C@@H](C(=O)NCCOCCOCC(=O)NCCCCCCCCCCC(=O)O)NC(=O)[C@H](Cc2cnc[nH]2)NC(=O)[C@H](C(C)O)NC(=O)[C@H](CC2CCCCC2)NC(=O)[C@H](CCN)NC(=O)[C@@H](CC(C)C)NC(=O)[C@H](CCCN)NC(=O)[C@H](C(C)C)NC(=O)[C@H](Cc2ccc(-c3ccccc3)cc2)NC1=O (stereo partly drawn) [Compound 3692] ({CH2CO}-[Dap]Y(Carboxymethyl)DWL[Bip]V[Orn][dL][Dab][Cha][Thr(3ξ)]HC[AEEA][Aun]-OH; thioether N-14)
9 | 59.8 nM | CC(C)C[C@@H]1NC(=O)[C@H](Cc2c[nH]c3ccccc23)NC(=O)[C@H](CC(=O)O)NC(=O)[C@H](Cc2ccc(OCC(=O)O)cc2)NC(=O)[C@H](CN)NC(=O)CSC[C@@H](C(=O)N[C@@H](CCN)C(=O)NCCCCCCCCCCC(=O)O)NC(=O)[C@H](CCCCN)NC(=O)[C@H](C(C)O)NC(=O)[C@H](CC2CCCCC2)NC(=O)[C@H](CCN)NC(=O)[C@@H](CC(C)C)NC(=O)[C@H](CCCN)NC(=O)[C@H](Cc2ccc(O)cc2)NC(=O)[C@H](Cc2ccc(-c3ccccc3)cc2)NC1=O (stereo partly drawn) [Compound 3693] ({CH2CO}-[Dap]Y(Carboxymethyl)DWL[Bip]Y[Orn][dL][Dab][Cha][Thr(3ξ)]KC[Dab][Aun]-OH; thioether N-14)
10 | 72.8 nM | CC(C)C[C@@H]1NC(=O)[C@H](Cc2c[nH]c3ccccc23)NC(=O)[C@H](CC(=O)O)NC(=O)[C@H](Cc2ccc(OCC(=O)O)cc2)NC(=O)[C@H](C(C)O)NC(=O)CSC[C@@H](C(=O)N[C@@H](CCN)C(=O)NCCCCCCCCCCC(=O)O)NC(=O)[C@H](CCCCN)NC(=O)[C@H](C(C)O)NC(=O)[C@H](CC2CCCCC2)NC(=O)[C@H](CCN)NC(=O)[C@@H](CC(C)C)NC(=O)[C@H](CCCN)NC(=O)[C@H](Cc2ccc(O)cc2)NC(=O)[C@H](Cc2ccc(-c3ccccc3)cc2)NC1=O (stereo partly drawn) [Compound 3694] ({CH2CO}-[Thr(3ξ)]Y(Carboxymethyl)DWL[Bip]Y[Orn][dL][Dab][Cha][Thr(3ξ)]KC[Dab][Aun]-OH; thioether N-14)
11 | 629 nM | CC(C)C[C@H]1NC(=O)[C@H](CCCN)NC(=O)[C@H](Cc2ccc(O)cc2)NC(=O)[C@H](Cc2ccc(-c3ccccc3)cc2)NC(=O)[C@H](Cc2ccc(O)cc2)NC(=O)[C@H](Cc2c[nH]c3ccccc23)NC(=O)[C@H](CC(=O)O)NC(=O)[C@H](Cc2ccc(OCC(=O)O)cc2)NC(=O)[C@H](C(C)O)NC(=O)CSC[C@@H](C(=O)N[C@@H](CCN)C(=O)NCCCCCCCCCCC(=O)O)NC(=O)[C@H](CN)NC(=O)[C@H](C(C)O)NC(=O)[C@H](CC2CCCCC2)NC(=O)[C@H](Cc2cnc[nH]2)NC1=O (stereo partly drawn) [Compound 3695] ({CH2CO}-[Thr(3ξ)]Y(Carboxymethyl)DWY[Bip]Y[Orn][dL]H[Cha][Thr(3ξ)][Dap]C[Dab][Aun]-OH; thioether N-14)
12 | 15.1 nM | Cc1cccc(C[C@@H]2NC(=O)[C@H](CC(=O)O)NC(=O)[C@H](Cc3ccc(OCC(=O)O)cc3)NC(=O)[C@H](CN)NC(=O)CSC[C@@H](C(=O)N[C@@H](CCN)C(=O)NCCCCCCCCCCC(=O)O)NC(=O)[C@H](CO)NC(=O)[C@H](Cc3cnc[nH]3)NC(=O)[C@H](CC3CCCCC3)NC(=O)[C@H](CCN)NC(=O)[C@@H](CC(C)C)NC(=O)[C@H](CCCN)NC(=O)[C@H](Cc3ccc(OCC(=O)O)cc3)NC(=O)[C@H](Cc3ccc(-c4ccccc4)cc3)NC(=O)[C@H](Cc3ccc(OCC(=O)O)cc3)NC2=O)c1 [Compound 3696] ({CH2CO}-[Dap]Y(Carboxymethyl)D[Phe(3-Me)]Y(Carboxymethyl)[Bip]Y(Carboxymethyl)[Orn][dL][Dab][Cha]HSC[Dab][Aun]-OH; thioether N-14)
13 | 11.2 nM | Cc1cccc(C[C@@H]2NC(=O)[C@H](CC(=O)O)NC(=O)[C@H](Cc3ccc(OCC(=O)O)cc3)NC(=O)[C@H](C(C)O)NC(=O)CSC[C@@H](C(=O)N[C@@H](CCN)C(=O)NCCCCCCCCCCC(=O)O)NC(=O)[C@H](CO)NC(=O)[C@H](Cc3cnc[nH]3)NC(=O)[C@H](CC3CCCCC3)NC(=O)[C@H](CCN)NC(=O)[C@@H](CC(C)C)NC(=O)[C@H](CCCN)NC(=O)[C@H](Cc3ccc(OCC(=O)O)cc3)NC(=O)[C@H](Cc3ccc(-c4ccccc4)cc3)NC(=O)[C@H](Cc3ccc(OCC(=O)O)cc3)NC2=O)c1 (stereo partly drawn) [Compound 3697] ({CH2CO}-[Thr(3ξ)]Y(Carboxymethyl)D[Phe(3-Me)]Y(Carboxymethyl)[Bip]Y(Carboxymethyl)[Orn][dL][Dab][Cha]HSC[Dab][Aun]-OH; thioether N-14)
